Assay results as given in publication PMC6100475, “Development and Validation of a HPLC-MS/MS Method for Simultaneous Determination of Twelve Bioactive Compounds in Epimedium: Application to a Pharmacokinetic Study in Rats” (Molecules : A Journal of Synthetic Chemistry and Natural …, 2018).

Columns and labels:
[1] = Pharmacokinetic study in rats after oral administration of Epimedium extract (HPLC-MS/MS of plasma); format: in vivo, Male Sprague-Dawley rats; conditions: rat plasma, single oral dose of Epimedium extract 10 g/kg; for AUC(0-inf) / half-life / AUC / MRT / MRT inf: male, Sprague-Dawley; for AUC(0-inf) / half-life / AUC / MRT / MRT inf / Cmax1 / Tmax1: n = 6; for AUC: read-out: AUC(0-tn); for MRT: read-out: MRT(0-tn); for MRT inf: read-out: MRT(0-∞); for Cmax2 / Tmax2: n = 6, second peak
Protocol: An Agilent 1200 Series HPLC system, which consisted of a binary pump (G1312A), an auto-sampler (G1367B), an online degasser unit (G1322A), along with temperature-controlled column compartment (G1316A), was used for the analysis. The twelve compounds and IS were separated on a CORTECS®C18 column (4.6 mm × 150 mm, 2.7 μm) maintained at 30 °C with the mobile phase consisted of acetonitrile (A) and 0.1% (v/v) formic acid (B). The flow rate was 0.3 mL/min. The gradient elution was as follows: 0–4 min, 20–50% A; 4–5 min, 50–60% A; 5–15 min, 60–70% A. The injection volume was 5 μL.
The tandem mass spectrometry was performed on a triple-quadrupole mass spectrometer equipped with an electrospray ionization (ESI) source (Agilent G6430A system). Nitrogen gas served as the nebulizer, drying, and collision gas. Analytes were monitored by SRM in negative mode with the electrospray ionization parameters optimized as follows: ion spray voltage of −4000 V, capillary temperature of 350 °C, auxiliary nitrogen pressure of 20 psi, drying gas flow of 9 L/min. The mass spectrometric parameters of precursor ion, product ion, collision energy (CE) and fragmentor (Frag) for analytes are listed in Table 6. Both the collision energy and the fragmentor were optimized for each compound by infusion of the standard solutions of methanol to mass spectrometry directly. The peak in sample was recognized as the target compound if the retention time, precursor ion, and product ion are same as the stand. For each analyte, the most abundant product ion was chosen for quantification. All analytes were quantified using the 6-point calibration curve. The peak areas were used for quantification following an internal algorithm. For each batch of samples processed and analyzed, the determined concentration of each compound in the QC samples, as quantified by the standard curves, was required to fall within ±15% of the known concentration for the data to be included in the final analysis.
Male Sprague-Dawley rats (220 ± 10) g were obtained from the Beijing HUAFUKANG Bioscience Co., Inc. (Beijing, China). Six male rats were acclimatized to the facilities for a week and fasted for 12 h, but allowed free access to water, before dosing. The Epimedium extract was suspended in 0.5% carboxymethyl cellulose sodium (CMC-Na) aqueous solution and given to each rat by oral administration at a single dose of 10 g/kg. Blood samples (250 μL) were collected from the fossa orbitalis of rats at 0 (before dosing), 0.03, 0.08, 0.17, 0.25, 0.5, 1, 2, 4, 6, 8, 10, 12 and 24 h after dosing. Then, the blood samples were centrifuged at 6000 g for 10 min to obtain the plasma, and the plasma was removed to another EP tube and frozen at −70 °C until analysis. The rat plasma concentration–time data of 12 analytes were computed by the software “Drug and Statistics 1.0” (DAS 1.0)

[2] = design: method as in PMID 20705408; conditions: previous reports ref 19; cited from earlier work

Row | Structure (SMILES) | AUC(0-inf) [1] [ng·h/mL] | half-life [1] [h] | AUC [1] [ng·h/mL] | MRT [1] [h] | MRT inf [1] [h] | Cmax1 [1] [ng/mL] | Tmax1 [1] [h] | Cmax2 [1] [ng/mL] | Tmax2 [1] [h] | bimodal phenomenon of plasma concentration–time curve [2]
1 | O=C(/C=C/c1ccc(O)c(O)c1)O[C@H]1[C@H](O)C[C@](O)(C(=O)O)C[C@H]1O [cryptochlorogenic acid] | 404 ± 169 | 0.53 ± 0.24 | 398 ± 171 | 3.75 ± 1.91 | 3.82 ± 2.48 | 269.77 ± 114.07 | 0.19 ± 0.05 | – | – | –
2 | COc1ccc(-c2oc3c(CC=C(C)C)c(OC4OC(CO)C(O)C(O)C4O)cc(O)c3c(=O)c2OC2OC(C)C(O)C(O)C2OC2OC(CO)C(O)C(O)C2O)cc1 (stereo not shown) [epimedin A] | 600 ± 219 | 12.5 ± 6.85 | 550 ± 199 | 10.8 ± 2.33 | 14.1 ± 3.98 | 82.79 ± 7.61 | 0.22 ± 0.04 | 59.34 ± 26.24 | 9.33 ± 0.94 | bimodal phenomenon
3 | COc1ccc(-c2oc3c(CC=C(C)C)c(OC4OC(CO)C(O)C(O)C4O)cc(O)c3c(=O)c2OC2OC(C)C(O)C(O)C2OC2OC(C)C(O)C(O)C2O)cc1 (stereo not shown) [epimedin C] | 919 ± 215 | 17.9 ± 8.23 | 850 ± 269 | 9.33 ± 2.34 | 12.5 ± 2.59 | 135.22 ± 31.26 | 0.22 ± 0.04 | 103.20 ± 33.10 | 7.67 ± 0.75 | –
4 | COc1ccc(-c2oc3c(CC=C(C)C)c(O[C@@H]4O[C@H](CO)[C@@H](O)[C@H](O)[C@H]4O)cc(O)c3c(=O)c2O[C@@H]2O[C@@H](C)[C@H](O)[C@@H](O)[C@H]2O)cc1 [icariin] | 325 ± 209 | 0.41 ± 0.19 | 323 ± 205 | 2.71 ± 0.79 | 2.75 ± 0.97 | 350.28 ± 195.96 | 0.16 ± 0.05 | – | – | –
5 | O=C(/C=C/c1ccc(O)c(O)c1)O[C@@H]1C[C@@](O)(C(=O)O)C[C@@H](O)[C@@H]1O [neochlorogenic acid] | 269 ± 70.9 | 0.64 ± 0.27 | 264 ± 68.2 | 3.18 ± 1.57 | 3.25 ± 1.97 | 205.96 ± 75.12 | 0.19 ± 0.05 | – | – | –

Continued, in another order:

Row | AUC(0-inf) [1] [ng·h/mL] | half-life [1] [h] | AUC [1] [ng·h/mL] | MRT [1] [h] | MRT inf [1] [h] | Cmax1 [1] [ng/mL] | Tmax1 [1] [h] | Cmax2 [1] [ng/mL] | Tmax2 [1] [h] | Structure (SMILES) | bimodal phenomenon of plasma concentration–time curve [2]
6 | 355 ± 144 | 6.93 ± 2.94 | 246 ± 133 | 11.5 ± 1.99 | 16.5 ± 3.06 | 6.87 ± 4.58 | 0.18 ± 0.03 | 29.17 ± 7.70 | 10.67 ± 1.03 | CC(C)=CCc1c(O)cc(O)c2c(=O)c(OC3OC(C)C(O)C(O)C3O)c(-c3ccc(O)cc3)oc12 (stereo not shown) [baohuoside II] | –
7 | 1680 ± 599 | 13.2 ± 4.8 | 1450 ± 616 | 10.8 ± 1.21 | 15.7 ± 4.1 | 65.20 ± 33.56 | 0.38 ± 0.14 | 170.73 ± 66.97 | 10.00 ± 1.79 | COc1ccc(-c2oc3c(CC=C(C)C)c(O)cc(O)c3c(=O)c2O[C@@H]2O[C@@H](C)[C@H](O)[C@@H](O)[C@H]2O)cc1 [baohuoside I] | bimodal phenomenon
8 | 886 ± 377 | 0.45 ± 0.3 | 880 ± 365 | 3.85 ± 1.28 | 3.91 ± 1.32 | 540.28 ± 225.18 | 0.19 ± 0.05 | – | – | O=C(/C=C/c1ccc(O)c(O)c1)O[C@@H]1C[C@](O)(C(=O)O)C[C@@H](O)[C@H]1O [chlorogenic acid] | –
9 | 1070 ± 212 | 3.64 ± 3.68 | 946 ± 250 | 6.98 ± 1.14 | 8.37 ± 2.39 | 316.73 ± 59.06 | 0.19 ± 0.07 | 129.90 ± 77.04 | 7.67 ± 0.75 | COc1ccc(-c2oc3c(CC=C(C)C)c(OC4OC(CO)C(O)C(O)C4O)cc(O)c3c(=O)c2OC2OC(C)C(O)C(O)C2OC2OCC(O)C(O)C2O)cc1 (stereo not shown) [epimedin B] | bimodal phenomenon
10 | 4000 ± 970 | 17.8 ± 8.25 | 3680 ± 875 | 9.86 ± 0.75 | 12.5 ± 1.72 | 411.40 ± 110.77 | 0.18 ± 0.03 | 275.67 ± 89.36 | 10.67 ± 1.63 | COc1ccc2c(c1O)-c1c(O)c(OC)cc3c1[C@H](C2)[N+](C)(C)CC3 [magnoflorine] | –
11 | 1780 ± 352 | 13.8 ± 7.09 | 1610 ± 349 | 12 ± 0.71 | 14.3 ± 2 | 20.35 ± 10.26 | 0.18 ± 0.03 | 203.50 ± 97.03 | 11.67 ± 0.82 | COc1ccc(-c2oc3c(CC=C(C)C)c(O)cc(O)c3c(=O)c2O[C@@H]2O[C@@H](C)[C@H](O)[C@@H](O)[C@H]2O[C@@H]2O[C@H](CO)[C@@H](O)[C@H](O)[C@H]2O)cc1 [sagittatoside A] | –
12 | 1040 ± 202 | 9.38 ± 2.11 | 854 ± 171 | 11.7 ± 1.17 | 14.9 ± 2.09 | 19.38 ± 9.79 | 0.20 ± 0.04 | 112.97 ± 44.50 | 11.00 ± 1.67 | COc1ccc(-c2oc3c(CC=C(C)C)c(O)cc(O)c3c(=O)c2OC2OC(C)C(O)C(O)C2OC2OCC(O)C(O)C2O)cc1 (stereo not shown) [sagittatoside B] | –
